{"source": "PubChem BioAssay AID1259409", "about": "(Chemical Carcinogenesis Research Information System (CCRIS), 2018)", "origin": "cited, not measured here", "system": "rodent chemically induced tumor inhibition, incidence and multiplicity", "experiment": "CCRIS tumor inhibitor studies", "details": "Dose [Inhibitor]: 0, Route [Inhibitor]: ORAL, Species: RAT, Promoter: NONE USED"}
{"smiles": "C[C@]12CC[C@H](O)CC1=CC[C@@H]1[C@@H]2CC[C@]2(C)C(=O)CC[C@@H]12", "values": [{"measurement": "tumour outcome (control, treated, inhibition, significance)", "setting": "Carcinogen: DIETHYLNITROSAMINE, 55-18-5, N-METHYL-N-NITROSOUREA, 684-93-5, N-BUTYL-N-(4-HYDROXYBUTYL)NITROSAMINE, 3817-11-6, 1,2-DIM, Carcinogen: DIETHYLNITROSAMINE, 55-18-5, N-METHYL-N-NITROSOUREA, 684-93-5, N-BUTYL-N-(4-HYDROXYBUTYL)NITROSAMINE, 3817-11-6, 1,2-DIM, 0.3% IND DIET FOR 23 WK BEGINNING 1 WK POST CARCINOGEN TREATMENT (STUDY DURATION: 28 WK), Strain/Sex: F344/MALE, Target Tissue: Type of Lesion: URINARY BLADDER: PAPILLOMA, Dose [Carcinogen]: 100 MG/KG BW DEN ONCE, 20 MG/KG BW MNU ONCE ON DAYS 6,9, AND 12, 0.05% BBN IN DRINKING WATER FOR FIRST TWO WK, 40 MG/KG, Dose [Carcinogen]: 100 MG/KG BW DEN ONCE, 20 MG/KG BW MNU ONCE ON DAYS 6,9, AND 12, 0.05% BBN IN DRINKING WATER FOR FIRST TWO WK, 40 MG/KG", "result": "2/20 (10%), 1/20 (5%), 50%, not significant"}, {"measurement": "outcome", "setting": "Carcinogen: DIETHYLNITROSAMINE, 55-18-5, N-METHYL-N-NITROSOUREA, 684-93-5, N-BUTYLY-N-(4-HYDROXYBUTYL)NITROSAMINE, 3817-11-6, 1,2-DI, Carcinogen: DIETHYLNITROSAMINE, 55-18-5, N-METHYL-N-NITROSOUREA, 684-93-5, N-BUTYLY-N-(4-HYDROXYBUTYL)NITROSAMINE, 3817-11-6, 1,2-DI, 0.3% IN DIET FOR 23 WK BEGINNING 1 WK POST CARCINOGEN TREATMENT (STUDY DURATION: 28 WK), Strain/Sex: F344/MALE, Target Tissue: Type of Lesion: LIVER: CARCINOMA, Dose [Carcinogen]: 100 MG/KG BW DEN ONCE, 20 MG/KG BW MNU ONCE ON DAYS 6,9, AND 12, 0.05% BBN IN DRINKING WATER FOR FIRST TWO WK, 40 MG/KG, Dose [Carcinogen]: 100 MG/KG BW DEN ONCE, 20 MG/KG BW MNU ONCE ON DAYS 6,9, AND 12, 0.05% BBN IN DRINKING WATER FOR FIRST TWO WK, 40 MG/KG", "result": "0/20 (0%), 2/20 (10%), 100%, not significant"}, {"measurement": "tumour outcome (control, treated, inhibition, significance)", "setting": "Carcinogen: DIETHYLNITROSAMINE, 55-18-5, N-METHYL-N-NITRSOUREA, 684-93-5, N-BUTYL-N-(4-HYDROXYBUTYL)NITROSAMINE, 3817-11-6, 1,2-DIME, Carcinogen: DIETHYLNITROSAMINE, 55-18-5, N-METHYL-N-NITRSOUREA, 684-93-5, N-BUTYL-N-(4-HYDROXYBUTYL)NITROSAMINE, 3817-11-6, 1,2-DIME, 0.3% IN DIET FOR 23 WK BEGINNING 1 WK POST CARCINOGEN TREATMENT (STUDY DURATION :28 WK), Strain/Sex: F344/MALE, Target Tissue: Type of Lesion: LARGE INTESTINE: ADENOCARCINOMA, Dose [Carcinogen]: 100 MG/KG BW DEN ONCE, 20 MG/KG BW MNU ONCE ON DAYS 6,9, AND 12, 0.05% BBN IN DRINKING WATER FOR FIRST TWO WK, 40 MG/KG, Dose [Carcinogen]: 100 MG/KG BW DEN ONCE, 20 MG/KG BW MNU ONCE ON DAYS 6,9, AND 12, 0.05% BBN IN DRINKING WATER FOR FIRST TWO WK, 40 MG/KG", "result": "2/20 (10%), 0/20 (0%), 100%, not significant"}, {"measurement": "tumour outcome (control, treated, inhibition, significance)", "setting": "Carcinogen: DIMETHYLNITROSAMINE, 62-75-9, 0.6% IN DIET BEGINNING 2 WK POST CARCINOGEN DOSE AND CONTINUING FOR 26 WK (STUDY DURATION: 120 WK), Strain/Sex: WISTAR/MALE, Target Tissue: Type of Lesion: KIDNEY: ADENOCARCINOMA, Dose [Carcinogen]: 30 MG/KG ONCE", "result": "12/30 (40%), 24/31 (77%), -93%, p<0.01"}, {"measurement": "tumour outcome (control, treated, inhibition, significance)", "setting": "Carcinogen: DIMETHYLNITROSAMINE, 62-75-9, 0.6% IN DIET BEGINNING 2 WK POST CARCINOGEN DOSE AND CONTINUING FOR 26 WK (STUDY DURATION: 120 WK), Strain/Sex: WISTAR/MALE, Target Tissue: Type of Lesion: KIDNEY: ADENOMA, Dose [Carcinogen]: 30 MG/KG ONCE", "result": "12/30 (40%), 17/31 (55%), -38%, not calculated"}, {"measurement": "tumour outcome (control, treated, inhibition, significance)", "setting": "Carcinogen: DIMETHYLNITROSAMINE, 62-75-9, 0.6% IN DIET BEGINNING 2 WK POST CARCINOGEN DOSE AND CONTINUING FOR 26 WK (STUDY DURATION: 120 WK), Strain/Sex: WISTAR/MALE, Target Tissue: Type of Lesion: KIDNEY: EPITHELIAL TUMOR, Dose [Carcinogen]: 30 MG/KG ONCE", "result": "19/30 (63%), 26/31 (84%), -33%, not calculated"}, {"measurement": "tumour outcome (control, treated, inhibition, significance)", "setting": "Carcinogen: DIMETHYLNITROSAMINE, 62-75-9, 0.6% IN DIET BEGINNING 2 WK POST CARCINOGEN DOSE AND CONTINUING FOR 26 WK (STUDY DURATION: 120 WK), Strain/Sex: WISTAR/MALE, Target Tissue: Type of Lesion: KIDNEY: MESENCHYMAL TUMOR, Dose [Carcinogen]: 30 MG/KG ONCE", "result": "14/30 (47%), 14/31 (45%), 4%, not significant"}, {"measurement": "tumour outcome (control, treated, inhibition, significance)", "setting": "Carcinogen: DIMETHYLNITROSAMINE, 62-75-9, 0.6% IN DIET BEGINNING 2 WK POST CARCINOGEN DOSE AND CONTINUING FOR 26 WK (STUDY DURATION: 120 WK), Strain/Sex: WISTAR/MALE, Target Tissue: Type of Lesion: KIDNEY: TUMOR, Dose [Carcinogen]: 30 MG/KG ONCE", "result": "26/30 (87%), 30/31 (97%), -11%, not significant"}]}
